Assay results reported in a melting point compilation (Tetko et al.; mined from patent text by program, amines drawn as free bases though some values may be those of a salt).

Work on CC(=NOCCO)c1ccc(S(=O)(=O)c2ccccc2)nc1 yielded a melting point of 77 to 78 °C. Work on COc1cccc(CNC(=O)c2cc3c(=O)n(CCOc4ccc(Cl)cc4)c(=O)n(C)c3s2)c1 yielded a melting point of 109 to 112 °C. With O=Cc1c(-c2cccnc2)[nH]c2ccccc12 the melting point was 148 to 150 °C. Work on CN1CCCC1CNC(=O)c1cc(S(=O)(=O)N(C)C)cc2c1OCCO2 (configuration not stated) yielded a melting point of 165 to 166 °C. With O=C1N(CCCCN2CCN(c3cn(-c4ccc(F)cc4)c4ccccc34)CC2)CSC12CCCCC2 the melting point was 134 to 136 °C. In the case of CC(C)(C)OC(=O)Nc1cc(N2CCOCC2)c(C#Cc2ccccc2)cc1[N+](=O)[O-], the melting point is reported as 190 to 191 °C. CCCCc1nc2cccc(C(=O)OC)c2n1Cc1ccc(-n2cccc2-c2nnn[nH]2)cc1 showed a melting point of 186 to 187 °C. Work on COc1ccc(-c2nc3sccn3c2/C=C/C(=O)c2cccs2)cc1 yielded a melting point of 169 to 172 °C. CCCn1nc2c(N)nc3ccccc3c2c1CCNC(=O)CC gave a melting point of 184 to 185 °C. With CC(C)n1nc(-c2sc(NC(=O)c3ccc(I)cc3)nc2-c2ccccc2)ccc1=O the melting point was 253 to 254 °C. In the case of COc1ccc(N2CCN(c3ccc(OC)nc3-c3ccc(C)cc3)CC2)cc1, the melting point is reported as 143 to 146 °C. CC(C)n1nc(-c2sc(NC(=O)Oc3ccccc3)nc2-c2ccccc2)ccc1=O gave a melting point of 205 to 207 °C. With O=C1CCC(N2C(=O)c3ccc(CNC(=O)c4cc5ccccc5s4)cc3C2=O)C(=O)N1 (configuration not stated) the melting point was 318 to 320 °C. Compound CC(=O)CCc1nc2c(N)nc3ccccc3c2n1CC(C)(C)O has a melting point of 181 to 184 °C. Compound O=S1(=O)CCCS(=O)(=O)N1F has a melting point of 171 to 172 °C. CCn1c2cc(C(F)(F)F)ccc2c2oc(C(=O)Cl)cc21 gave a melting point of 124 to 126 °C. Compound FC(F)(F)c1n[nH]c(-c2nc3ccccc3s2)n1 has a melting point of 254 °C. O=C(Nc1ccccc1)OCC(=O)c1ccccc1 showed a melting point of 146 to 148 °C. In the case of O=C(Nc1nccs1)C1C(=O)Sc2cc(Cl)ccc21 (configuration not stated), the melting point is reported as 276 to 289 °C. C=CCNc1nc(NCCCCCCC)c2scc(C)c2n1 gave a melting point of 56 to 57 °C. In the case of CCOc1ccccc1C(=O)NC(=O)NC1CN2CCC1CC2 (configuration not stated), the melting point is reported as 198 to 199 °C. Cc1occ(C(F)(F)F)c1C(=O)O showed a melting point of 140 °C. In the case of O=C(O)CCCc1cccc2c1OC=CO2, the melting point is reported as 75 to 76 °C. Work on O=c1cc(N2CCOCC2)oc2c(-c3ccc(O)c(-c4ccccc4)c3)cccc12 yielded a melting point of 243 to 247 °C. Work on CN1C(=O)C2C3CCC(C3)C2(c2ccc(F)c(F)c2)C1=O (configuration not stated) yielded a melting point of 96 to 100 °C. Compound COc1c(Cl)ccc(-c2cc(N)c(Cl)c(C(=O)NOCc3ccco3)n2)c1F has a melting point of 161 to 164 °C. In the case of N#Cc1nn(-c2c(Cl)cc(C(F)(F)F)cc2Cl)cc1C1CC1(Cl)Cl (configuration not stated), the melting point is reported as 123 to 126 °C. CC1(C)C=Cc2c(ccc3c2C(=O)C(=O)C=C3)O1 showed a melting point of 109 to 110 °C. Work on CCN(CC)CCOc1ccc(Nc2ncc3c(n2)N(C)C(=O)N(C(C)(C)C)C3)cc1 yielded a melting point of 130 °C. In the case of CC(=NCCO)C1CCC2C3CCC4CC(O)C(N5CCOC(C)C5)CC4(C)C3CCC12C (configuration not stated), the melting point is reported as 162 to 165 °C. Cc1cc(Cl)cc(C(=O)NC(C)C2CC2)c1NC(=O)c1cc(Br)nn1-c1ncccc1Cl (configuration not stated) showed a melting point of 182 to 183 °C. Work on N=C(NS(=O)(=O)C=Cc1ccc([N+](=O)[O-])cc1)c1cccc([N+](=O)[O-])c1 yielded a melting point of 230 to 232 °C. With COc1c(S(N)(=O)=O)cc(C(=O)O)c2c1OCCO2 the melting point was 247 to 248 °C. CCN(CC)CC(=O)Nc1ccc2c(c1)C(=O)c1cc(NC(=O)CN(CC)CC)ccc1C2=O showed a melting point of 241 °C. Work on CC(C)(Cc1ccc(Cl)cc1)C(=O)Cn1cncn1 yielded a melting point of 127 °C. O=c1oc(-c2cccc(C(F)(F)F)c2)nc2cccc(Cl)c12 showed a melting point of 116 to 120 °C. Compound O=S1(=O)NCN(CCF)c2cc(F)c(F)cc21 has a melting point of 128 to 130 °C. COc1cc2cc(/C=C/c3ccccc3)[nH]c2cc1OCc1ccccc1 gave a melting point of 140 to 145 °C. Work on O=C(NC1=NN(c2ccc(Cl)cc2)C(c2ccccc2)C1)C(F)(F)F (configuration not stated) yielded a melting point of 176 to 178 °C. Work on Cc1ccc(S(=O)(=O)NCCCCOc2ccc(-c3nnn[nH]3)cc2)cc1 yielded a melting point of 180 to 182 °C. For CCOc1ccc(-c2ncc(C#N)cn2)cc1, the melting point was 153 °C. CCN(CCOC)C(=O)c1cc(-c2ccccc2)c(=O)n2c1-c1ccccc1C2 gave a melting point of 139 to 140 °C. COc1ccc(C(=O)n2c(C)c(Cc3cc(=O)n(C4CCCCC4)[nH]3)c3cc(OC)ccc32)cc1 showed a melting point of 88 to 90 °C. Compound N#Cc1c(O)nc2ccc([N+](=O)[O-])cc2c1O has a melting point of 281 to 282 °C. For O=C(Nc1ccccc1)C1C(=O)Sc2ccccc21 (configuration not stated), the melting point was 140 to 142 °C. ClCc1ccc(C#Cc2ccccc2)cc1 gave a melting point of 61.5 to 63.5 °C. In the case of Cc1c(C(=O)Nc2ccc(N3CCN(C4CCOCC4)CC3)c(C#N)c2)cnn1-c1ccc(Cl)cc1, the melting point is reported as 276 °C. Nc1cc(Cl)nc(SCc2cccc(O)c2)n1 gave a melting point of 148 °C. In the case of COc1ccc(C(Cc2ccncc2)c2ccc(C(=O)O)cc2)cc1OC1CCCC1 (configuration not stated), the melting point is reported as 161 to 163 °C. For CN(C)CCc1ccc(O)c2c1=NS(=O)(=O)N=2, the melting point was 202 to 205 °C. Work on Cn1nc(-c2ncc(Cl)cc2F)c([N+](=O)[O-])c1OC(F)F yielded a melting point of 108 to 109 °C. Work on O=C(O)c1cccnc1Oc1cccc(C(F)(F)F)c1 yielded a melting point of 149 to 151 °C. Work on Cc1nc2c(-c3ccc(N4CCN(C)CC4)cc3)cnn2c(N)c1-c1cccc(Cl)c1 yielded a melting point of 113 to 115 °C. CCOC(=O)C1CCN2C(=O)C(=O)c3cc(Br)cc1c32 (configuration not stated) gave a melting point of 150 to 151 °C. O=C(O)c1ccc(NC(=O)C(CS)Cc2ccccc2)cc1O (configuration not stated) showed a melting point of 166 to 170 °C. O=C(c1sc(NC(=O)N2CCOCC2)nc1-c1ccco1)C1CCCC1 showed a melting point of 108 to 110 °C. Compound O=C(CCc1cccnc1)C12CC3CC(CC(C3)C1)C2 has a melting point of 43 to 44.5 °C. Compound CCCCOc1cc(CCC(=O)O)ccc1-c1cccc(CN(C)C(=O)c2cccc(OC)c2)c1 has a melting point of 80 to 82 °C. For COC(=O)c1oc2cc3ccccc3cc2c1OC, the melting point was 121 to 124 °C. Compound Cc1noc(NS(=O)(=O)c2cccc(Cl)c2)c1Br has a melting point of 132 to 134 °C. In the case of COc1ccc2c(c1)CCC1C2C(O)CC2(C)C(O)CCC12 (configuration not stated), the melting point is reported as 161 to 162 °C. For CC(C)Oc1cccc(C(=O)N2CCN(C(=O)CNC3CCN(Cc4ccccc4)CC3)C(c3ccc(Cl)c(Cl)c3)C2)c1 (racemic), the melting point was 58 to 61 °C. In the case of CCCOc1ccccc1-c1ccc([N+](=O)[O-])c(=O)[nH]1, the melting point is reported as 198 to 200 °C. Compound Cc1c([N+](=O)[O-])ccc2c1CCN2 has a melting point of 169 to 171 °C. COC(=O)c1cnn(-c2cc(Cl)cc(Cl)c2)c1C(N)=O showed a melting point of 220 to 222 °C. CN(C)c1ccc2sccc2c1 gave a melting point of 52 to 54 °C. COC(c1c(Cl)sc(Cl)c1Cl)C(C)N(OC)C(=O)c1cn(C)nc1C(F)F (configuration not stated) gave a melting point of 113 to 116 °C. CN1CCN(C(=O)c2cc3ccnc(Cl)c3[nH]2)CC1 gave a melting point of 230 to 232 °C. With COC(=O)c1c(OC)c(OC)cc2[nH]c(=O)c(=O)[nH]c12 the melting point was > 300 °C. In the case of COC(=O)C(C#N)C(c1ccccc1OC)c1ccnc2ccccc12 (configuration not stated), the melting point is reported as 169 to 171 °C. Work on O=C(CNCc1cccc(C(F)(F)F)c1)Nc1cccc2c1C(=O)c1c(NC(=O)CNCc3cccc(C(F)(F)F)c3)cccc1C2=O yielded a melting point of 190 to 191 °C. Work on CCNS(=O)(=O)c1ccc(C2=C(c3ccccc3)C(=O)C(C)(C)O2)cc1Cl yielded a melting point of 72 to 73 °C. With CCC(CC)/C(N)=C(\C)C#N the melting point was 150 °C. For O=[N+]([O-])c1c(Cl)sc(Cl)c1S(=O)(=O)Cl, the melting point was 89 to 91 °C. With COCCc1sc(C(C)(O)c2nc(C)c(CCOC)s2)nc1C the melting point was 50 to 51 °C. CC(C)(C)[NH+]([O-])C(=O)Nc1ccnc(-c2ccncc2)n1 (configuration not stated) showed a melting point of 125 to 150 °C. CCC(CC)(CC(=O)Nc1cccc(OCc2ccc3ccc(C(C)=O)cc3n2)c1)C(=O)O showed a melting point of 164 °C. With COc1cccc(C=CC(=O)NC2CCNC(=O)C2)c1OC (configuration not stated) the melting point was 164 to 166 °C. Work on CCOC(=O)c1cn(C2COC2)c2c(OC)c(F)c(F)cc2c1=O yielded a melting point of 195 to 198 °C. CC(=O)c1ccc(OCCCN2CCC(c3noc4cc(F)ccc34)CC2)cc1 gave a melting point of 111 to 112 °C. CN(C)c1ccc(NC(=O)C(CS)Cc2ccccc2)cc1C(=O)O (configuration not stated) showed a melting point of 85 to 89 °C. With CC(ON=C(C(=O)O)c1ccc(O)c(Cl)c1)C(=O)OC(C)(C)C (configuration not stated) the melting point was 148 to 151 °C. CCOC(=O)C1(C(=O)OCC)CCc2cc3c(cc2C1c1cc(OC)c(O)c(OC)c1)OCO3 (configuration not stated) gave a melting point of 147 to 148 °C. Compound C#CCc1c(C)nc2c(NCc3ccccc3C)cccn12 has a melting point of 126 to 128 °C. For O=C(NCc1ccccn1)c1nc(-c2ccccc2)c(-c2ccc(=O)n(Cc3ccccc3)n2)s1, the melting point was 172 to 174 °C. O=CNc1ccc2c(c1)nc(/C=C/c1ccccc1)n2-c1ccccn1 showed a melting point of 190 to 192 °C. With NC(=O)CC(O)COC(c1ccccc1)(c1ccccc1)c1ccccc1 (configuration not stated) the melting point was 59 to 60 °C. Compound C=CCc1c(C=O)cccc1OCc1ccccc1 has a melting point of 66 to 67 °C. In the case of CC(C)(C)c1cc(CSCCC(=O)ON(Cc2ccccc2)Cc2ccccc2)cc(C(C)(C)C)c1O, the melting point is reported as 84 to 86 °C. Oc1ccc2oc(-c3ccc(O)c4ccccc34)nc2c1 gave a melting point of 182 to 184 °C. For O=C1c2ccccc2C(=O)N1CSc1cccnc1, the melting point was 123 to 124 °C. In the case of Cc1c(-c2ccc(F)cc2)c(-c2ccc(S(N)(=O)=O)cc2)c2n1CCC2, the melting point is reported as 120 °C. In the case of COC(=O)c1cccc(-n2cncn2)c1, the melting point is reported as 115 to 120 °C. CN1CCc2nc3cc(Cl)ccc3c(Oc3ccccc3)c2C1 gave a melting point of 138 to 139 °C. CCCCOC(=O)C(Cl)=Cc1cc(-n2c(=O)cc(C(F)(F)F)n(C)c2=O)ccc1Cl showed a melting point of 109 to 110 °C. N#Cc1c(C(F)(F)F)ccc(Cl)c1F showed a melting point of 43 to 44 °C. Compound O=C(Nc1cccc(NC(=O)c2ccc(O)cc2)c1)c1ccc(O)cc1 has a melting point of 250 °C. CN1Cc2c(C(=O)OC(C)(C)C)ncn2-c2cccc(C#N)c2C1=O showed a melting point of 213 to 215 °C. In the case of CCOC(=O)NN(C(=O)NC)S(=O)(=O)c1ccccc1, the melting point is reported as 138 to 142 °C. For O=[N+]([O-])c1cccc(O)c1O, the melting point was 82 to 85 °C. Work on CSC1CC(=O)N1CC(=O)OCc1ccccc1 (single isomer, unassigned; (-)) yielded a melting point of 38 to 40 °C. Compound COCCNc1nc(Cc2ccc(OC)c(OC)c2)nc2sc(C#N)c(C)c12 has a melting point of 94 to 97 °C.
